According to paper PMC3534098 (PLoS ONE, 2012):
pKd: −log10 of the molar value. ≈ marks a conversion by molar mass, not a printed value. Read-outs that look alike come from different tables or passages of the source.

Experiments:
M. tuberculosis H37Rv [1] = experiment: microbe, parasite or virus in culture; format: cell-based; conditions: Mycobacterium tuberculosis, read-out: MIC H37Rv
M. tuberculosis Beijing = experiment: microbe, parasite or virus in culture; format: cell-based; conditions: Mycobacterium tuberculosis, read-out: MIC Beijing
M. tuberculosis inh233 = experiment: microbe, parasite or virus in culture; format: cell-based; conditions: Mycobacterium tuberculosis, INH233, read-out: MIC inh233
M. tuberculosis CDC1551 = experiment: microbe, parasite or virus in culture; format: cell-based; conditions: Mycobacterium tuberculosis, CDC1551, read-out: MIC CDC1551
[2] = system: M. bovis BCG strain Pasteur; experiment: microbe, parasite or virus in culture; format: cell-based; conditions: Mycobacterium tuberculosis variant bovis BCG, read-out: MIC M. bovis BCG
[3] = system: Enterococcus faecium, Enterococcus faecalis, Haemophilus influenzae, Moraxella catarrhalis, Streptococcus pneumoniae, Escherichia coli and Streptococcus …; format: cell-based, Gram-positive and Gram-negative organisms
[4] = system: L1210, HepG2, NEURO 2A, MDCK and H9C2(2-1)
[5] = not given; remark: listed apart in the source
in vitro [6] = conditions: mouse, microsomes, pH 7.4
in vitro [7] = conditions: human, microsomes, pH 7.4
[8] = Whole blood pharmacokinetics after oral administration in mice; format: in vivo, C57BL/6 female mice; conditions: female, mouse, oral 50 mg/kg suspension in 1% aqueous methylcellulose
Method: (§1) For pharmacokinetic studies C57BL/6 female mice of 18–20 g weight were used. Experimental compounds were administered through oral gavage at 50 mg/kg dose at a concentration of 20 ml/kg. All mice received treatment in the fed state. Peripheral total blood was the compartment chosen for the establishment of compound concentrations. Drugs were administered as 1% methyl cellulose suspensions and the blood sampling scheme was: 15, 30 and 45 minutes, 1, 1.5, 2, 3, 4, 8 and 24 hours. At each time-point, blood from 4 different animals was obtained. LC-MS was used as the analytical method of choice for the establishment of compound concentration in blood with a sensitivity of LLQ = 1–5 ng/ml in […]. The non-compartmental data analysis was performed with WinNonlin 5.0 and supplementary analysis was performed with GraphPad 4 software. Dose-response studies in an acute murine infection TB model were carried out as previously described.
Figure 2 Whole blood pharmacokinetic profile and main parameters of IP 3 after oral administration of a 50 mg/kg suspension in 1% aqueous methylcellulose.

M. tuberculosis H37Rv [9] = experiment: Dose response efficacy in acute murine model of TB infection; format: in vivo, B6 mice
Method: as §1
Figure 3 Therapeutic efficacy of anti-tubercular IP 3 against M. tuberculosis H37Rv in vivo. B6 mice were infected by intra-tracheal instillation with 10^5 cfu M. tuberculosis H37Rv per mouse. The mice were treated with the anti-tubercular orally once a day from day 1 to day 8. Efficacy results are expressed as log cfu reduction in the lungs of infected mice and are the mean±SD of five mice. The shaded line indicates the levels of administered mycobacterial inoculum.

cytochrome bc 1 complex = molecular target: cytochrome bc 1 complex; parameters: method as in PMID 6327677; conditions: high affinity binding site Qo; cited from earlier work

| SMILES | MIC (M. tuberculosis H37Rv [1]) | MIC (M. tuberculosis Beijing) | MIC (M. tuberculosis inh233) | MIC (M. tuberculosis CDC1551) | MIC [2] | MIC Anti-bacterial panel [3] | Tox50 Cell lines [4] | Mouse CLint (mouse liver microsomes) | Human CLint ([5]; human liver microsomes) | half-life at 0.5 mM (in vitro [6]) | Mouse CLint (mouse, microsomes) | Human CLint ([5]; human, microsomes) | half-life (in vitro [6]) | half-life (in vitro [7]) | further results |
| --- | --- | --- | --- | --- | --- | --- | --- | --- | --- | --- | --- | --- | --- | --- | --- |
| Cc1ccc2nc(C)c(C(=O)NCc3cccs3)n2c1 [IP 1] | 0.2 µM (≈ 0.0571 µg/mL) | 0.03 µM (≈ 0.00856 µg/mL) | 0.03 µM (≈ 0.00856 µg/mL) | 0.06 µM (≈ 0.0171 µg/mL) | 1 µM (≈ 0.285 µg/mL) | all>64 µM | all>25 µM | >30 ml/min/gprotein | 3.9 ml/min/gprotein | < 3 min | – | – | – | – | – |
| Cc1ccc2nc(C(F)(F)F)c(C(=O)NCc3cccc(Cl)c3)n2c1 [IP 2] | 0.2 µM (≈ 0.0736 µg/mL) | 0.06 µM (≈ 0.0221 µg/mL) | 0.03 µM (≈ 0.011 µg/mL) | 0.06 µM (≈ 0.0221 µg/mL) | – | all>16 µM | all>50 µM | >30 ml/min/gprotein | >30 ml/min/gprotein | < 3 min | – | – | – | – | half-life at 0.5 mM (in vitro [7]): < 3 min |
| Cc1ccc2nc(C)c(C(=O)NCc3ccc(C(F)(F)F)cc3)n2c1 [IP 3, 2,6-Dimethyl-N-(4-(trifluoromethyl)benzyl)imidazo[1,2-a]pyridine-3-carboxamide] | 0.03 µM (≈ 0.0104 µg/mL) | – | – | – | 0.5 µM (≈ 0.174 µg/mL) | all>16 µM | all>25 µM | – | – | – | 7 ml/min/gprotein | 4.9 ml/min/gprotein | 11.6 min | 15.8 min | bioavailability ([8]; C57BL/6, whole blood, read-out: F (percentage bioavailability)): 61%; AUC ([8]; C57BL/6, whole blood, read-out: AUC (Area Under the Curve) (0–8 hours)): 4360 ng·h/mL; Cmax ([8]; C57BL/6, whole blood, read-out: Cmax (maximum concentration observed in whole blood)): 3400 ng/mL; log cfu reduction with respect to non-treated controls (M. tuberculosis H37Rv [9]; 300 mg/kg orally once a day from day 1 to day 8, lungs of infected mice): 2 log cfu; log cfu reduction with respect to non-treated controls (M. tuberculosis H37Rv [9]; 500 mg/kg orally once a day from day 1 to day 8, lungs of infected mice): 2 log cfu; behavior in vivo (M. tuberculosis H37Rv [9]; acute murine model of TB infection): bacteriostatic; signs of toxicity (M. tuberculosis H37Rv [9]; any of the administered doses, mice): No signs of toxicity |
| Cc1ccc2nc(C)c(C(=O)NCc3ccc(Cl)nc3)n2c1 [IP 4, N-((6-Chloropyridin-3-yl)methyl)-2,6-dimethylimidazo[1,2-a]pyridine-3-carboxamide] | 5 µM (≈ 1.57 µg/mL) | – | – | – | 5 µM (≈ 1.57 µg/mL) | all>16 µM | all>50 µM | – | – | – | 7.4 ml/min/gprotein | 2.3 ml/min/gprotein | 11.4 min | > 30 min | – |
| CO/C(=C/C(N)=O)[C@H](C)[C@H](/C=C/c1csc(-c2csc([C@@H](C)/C=C/C=C/C(C)C)n2)n1)OC [Myxothiazol, myxothiazol] | – | – | – | – | – | – | – | – | – | – | – | – | – | – | pKd (cytochrome bc 1 complex): > 9.00 |
